Converted amounts (≈) assume the structure as drawn. *1 amine or outer side, *2 acyl side, *3 side chain or, on linkers, in order; H or OH if unused. Where a SMILES comes first, the peptide text is derived from it. Bridges are numbered along the chain shown (N, C = ends). Where no end group is shown, it is not given here. [ ]: non-standard residue; d: D form. The star is where a group is joined. TBMB = c1c(C[*:1])cc(C[*:3])cc1C[*:2]; NHtetradecyl = CCCCCCCCCCCCCCN*; NHDecyl = CCCCCCCCCCN*
How the values were obtained:
lipid II = assay: Lipid II antagonization assay; format: cell-based, M. luteus; design: key to Result with antagonist Lipid II: +: antagonization of antibiotic activity; -: no antagonization of antibiotic activity; conditions: for Result with antagonist Lipid II: Supplemental table S10, peptide at 4x MIC, antagonist at 4 molar equivalents, M. luteus 1 x 10^6 CFU/ml, 16 h at 30°C, growth observed visually; for Effect of pre-incubation with lipid II on antibacterial activity: premixed with an excess of lipid II before addition of a live culture of M. luteus
Protocol: (§1) To assess the role of lipid II in the mode of action of the lipopeptides a lipid II antagonization assay was employed.[18],[33] This assay was performed by premixing P8-D-C10 or the optimized P8-D-(S6R, R15A)-C10 with an excess of lipid II prior to addition of a live culture of M. luteus. […] To probe the stereochemical aspects of lipid II recognition by the optimized P8-D-(S6R, R15A)-C10 lipopeptide we also prepared and tested the corresponding enantiomeric L-peptide species P8-L-(S6R, R15A)-C10. […] Given that lipid II is a chiral biomolecule we had expected the enantiomeric lipopeptides to have different activities based on the assumption that they would interact differently with lipid II. To further investigate this phenomenon we employed the same lipid II antagonization assay described above. […] To explain this observation we hypothesize that the two enantiomeric peptides interact primarily with the pyrophosphate moiety of lipid II and are therefore less influenced by the chiral elements present elsewhere in the lipid II molecule. The pyrophosphate group is known to be a binding site for many natural occurring lipid II binding peptides.[15],[16] […] To test the hypothesis that both the P8-D-(S6R, R15A)-C10 and P8-L-(S6R, R15A)-C10 lipopeptides interact with the pyrophosphate moiety we performed an additional antagonizaiton experiment using C55-PP.
(§2) Section 4 Biological and biochemical experiments
(§3) 4.1 Minimum inhibitory concentration assay
(§4) MIC values were determined by using the broth microdilution method. Peptides were dissolved first in DMSO and diluted with broth so that the final peptide concentration was 1024 µg/ml and the DMSO concentration was 4%. Peptide serial dilutions were made in TSB in a polypropylene 96-wells plate using 50 µl volumes. An overnight culture of the organism of interest was diluted to and OD600 of 0.01 and grown until they reach 0.5. The culture was then diluted to 1 x 10^6 CFU/ml and 50 µl of this suspension was added to each well. The highest concentrations were then 512 µg/ml peptide and 2% DMSO. The plates were incubated at the preferred growth temperature of the organism that was used and 250 rpm. […] When […]
(§5) determining the MICs of the lipidated peptides, the lipopeptides were first dissolved in DMSO and diluted with TSB so that the peptide concentration was 128 µg/ml and the DMSO concentration was 4%. After inoculation the highest peptide concentration evaluated was 64 µg/ml and the DMSO concentration was 2%. A DMSO control was tested for each strain to ensure the DMSO did not affect the growth of the particular strain. […]
(§6) 4.4 Antagonization assays
(§7) Stock solutions of each peptide antibiotic were prepared so that their final concentration in the assay would be 4x MIC. Peptides were transferred to a 96 wells plate and lipid II or C15-P (farnesyl-phosphate) was added at 4 molar equivalents in a final volume of 50 µl. Each well received 50 µl of bacterial suspension (M. luteus) at 1 x 10^6 CFU/ml and the plates were incubated for 16 h at 250 rpm and 30°C. Growth was observed visually (see supplemental table S10 for results).

Sheep blood = assay: Hemolysis assay; format: cell-based; conditions: for Hemolysis 32 µg/ml (after 1 h): Supplemental table S7, sheep blood cells in PBS, 1 h at 37°C, absorption at 414 nm
Protocol: Sheep blood in Alsever’s solution (2 mL) was diluted with PBS (13 mL) and centrifuged (2,000 RPM, 5 min). The supernatant was discarded and the cells were washed with another 13 mL of PBS and centrifuged. Washing was continued until the supernatant was clear. After the final wash the supernatant was discarded and the packed cells were kept on ice. Serial dilutions of each peptide were made in 50 µl PBS with the highest tested concentration 64 µg/mL in PBS, 2%
DMSO. The packed cells (150 µL) were suspended in PBS (10 mL) and 50 µL of this suspension was added to each well. A well plate column containing 0.1% triton x-100 in DI water was used as the 100% lysis control and a second column with PBS (with 2% DMSO) served as the 0% lysis control. After incubation at 37°C for 1h the plates were centrifuged (2,000 RPM, 5 min) and 25 µL of the supernatant was added to 100 µL DI water in a flat-bottom 96-wells plate (polystyrene). […]

S. pyogenes (5448) = assay: microbe, parasite or virus in culture; format: cell-based
Protocol: as §2, §3, §4, §5

B. subtilis (168) = assay: microbe, parasite or virus in culture; format: cell-based
Protocol: as §2, §3, §4, §5

S. epidermidis (1587) = assay: microbe, parasite or virus in culture; format: cell-based
Protocol: as §2, §3, §4, §5

E. faecium (VRE2297) = assay: microbe, parasite or virus in culture; format: cell-based, Enterococcus faecium
Protocol: as §2, §3, §4, §5

E. faecium (VRE155) = assay: microbe, parasite or virus in culture; format: cell-based, Enterococcus faecium; conditions: for MIC VRE E155: Supplemental table S7, P8 with varying lipids, broth microdilution
Protocol: as §2, §3, §4, §5

E. faecium (E980) = assay: microbe, parasite or virus in culture; format: cell-based, Enterococcus faecium
Protocol: as §2, §3, §4, §5

E. faecium (VRE0321) = assay: microbe, parasite or virus in culture; format: cell-based, Enterococcus faecium
Protocol: as §2, §3, §4, §5

E. faecium (VRE7391) = assay: microbe, parasite or virus in culture; format: cell-based, Enterococcus faecium
Protocol: as §2, §3, §4, §5

M. luteus (NCTC2665) = assay: microbe, parasite or virus in culture; format: cell-based, Micrococcus luteus; conditions: for MIC M. luteus: Supplemental table S7, P8 with varying lipids, broth microdilution
Method in brief: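 Broth microdilution in TSB; peptides serially diluted, top final concentration 512 µg/ml (lipopeptides 64 µg/ml) with 2% DMSO. Inoculum from cultures grown to OD600 0.5, diluted to 1 x 10^6 CFU/ml before mixing 1:1 with peptide. Incubated at each organism's preferred growth temperature, 250 rpm.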

C55-PP = assay: Antagonization assay with C55-PP; format: cell-based, M. luteus; design: key to Result with antagonist C55-PP: +: antagonization of antibiotic activity; -: no antagonization of antibiotic activity; conditions: Supplemental table S10; peptide at 4x MIC, M. luteus, 16 h at 30°C, growth observed visually
Protocol: as §1, §2, §3, §4, §5, §6, §7

[1] = tested on: C15-P (farnesyl-phosphate); assay: Antagonization assay with C15-P (negative control); format: cell-based; design: key: +: antagonization of antibiotic activity; -: no antagonization of antibiotic activity; conditions: Supplemental table S10, peptide at 4x MIC, 4 molar equivalents, M. luteus, 16 h at 30°C, growth observed visually
Protocol: as §2, §3, §4, §5, §6, §7
Supplemental table S10. Lipid II antagonization assay results
Result with indicated antagonista
Antibiotic compound Lipid II C55-PP C15-Pb […]
a + = antagonization of antibiotic activity; - = no antagonization of antibiotic activity; b C -P was used as a negative […]
control (C15-P is a watersoluble analogue of the lipid II precursor undecaprenol phosphate).
4.6 Scanning Electron Microscopy
E. faecium E155 was inoculated at an OD600nm of 0.05 into 300 µL of cation adjusted TSB containing P8-D-(S6R, R15A)-C10 or nisin at (both a 2x MIC) along with 1% glucose and 1%
DMSO. An untreated culture was used as control. Following overnight incubation (ca. 16 hr) bacterial cells were fixed for 15 minutes with 1% (v/v) glutaraldehyde in phosphate buffered saline (PBS) at room temperature on poly-L-lysine covered glass slides (12 mm diameter). […]

[2] = footnote to Supplemental table S7; observation in words during MIC experiments
[3] = read-out: Kd for undecaprenyl pyrophosphate (C55-PP); cited from earlier work
[4] = Supplemental table S9, MIC values of Table 2 expressed in µM
[5] = Table 2, broth microdilution in TSB, 16 h, read visually, highest tested 64 µg/ml
[6] = Supplemental table S6, lipidated phage display hits, n.a. = not active, highest tested conc 64 µg/ml
[7] = Table 2, vancomycin-resistant isolate from hospitalized patients, broth microdilution in TSB, 16 h, highest tested 64 µg/ml
[8] = Supplemental table S9, vancomycin-resistant isolate, MIC values of Table 2 expressed in µM

| Molecule | Result with antagonist Lipid II (lipid II) | Effect of pre-incubation with lipid II on antibacterial activity (lipid II) | Hemolysis 32 µg/ml (after 1 h) (Sheep blood) | MIC S. pyogenes (5448) (S. pyogenes (5448); [4]) | MIC S. pyogenes (5448) (S. pyogenes (5448); [5]) | MIC B. subtilis (168) (B. subtilis (168); [5]) | MIC S. epidermidis (1587) (S. epidermidis (1587); [5]) | MIC E. faecium (VRE2297) (E. faecium (VRE2297); [7]) | MIC VRE E155 (E. faecium (VRE155)) | MIC E. faecium (VRE155) (E. faecium (VRE155); [8]) | MIC E. faecium (E980) (E. faecium (E980); [4]) | MIC E. faecium (E980) (E. faecium (E980); [5]) | MIC E. faecium (VRE0321) (E. faecium (VRE0321); [8]) | MIC E. faecium (VRE0321) (E. faecium (VRE0321); [7]) | MIC E. faecium (VRE7391) (E. faecium (VRE7391); [8]) | MIC E. faecium (VRE7391) (E. faecium (VRE7391); [7]) | MIC M. luteus (M. luteus (NCTC2665)) | MIC M. luteus (NCTC2665) (M. luteus (NCTC2665); [4]) | Result with antagonist C55-PP (C55-PP) | Result with antagonist C15-P [1] | further results |
| --- | --- | --- | --- | --- | --- | --- | --- | --- | --- | --- | --- | --- | --- | --- | --- | --- | --- | --- | --- | --- | --- |
| CCCCCCCCCCNC(=O)CNC(=O)[C@H]1CSCc2cc3cc(c2)CSC[C@@H](NC(=O)[C@@H](CC(C)C)NC(=O)[C@@H](CC(C)C)NC(=O)[C@@H](CO)NC(=O)[C@@H](CCC(N)=O)NC(=O)[C@@H](CC(C)C)NC(=O)[C@@H](CC(C)C)NC(=O)[C@H](NC(=O)[C@@H](C)N)CSC3)C(=O)N2CCC[C@@H]2C(=O)N[C@H](Cc2ccc(O)cc2)C(=O)N[C@H](CO)C(=O)N[C@H]([C@H](C)O)C(=O)N[C@H](Cc2c[nH]cn2)C(=O)N[C@H](CCCNC(=N)N)C(=O)N1 [Peptide P8-D-C10] (H-[dA][dC][dL][dL][dQ][dS][dL][dL][dC][dP][dY][dS][dT][dH][dR][dC]G-NHDecyl; linker 2-9-16 via TBMB) | + | antagonization of antibacterial activity | 6% | 7.6 µM (≈ 16.1 µg/mL) | 8 μg mL^–1 | 8–16 μg mL^–1 | 64 μg mL^–1 | 8–16 μg mL^–1 | 4 µg/mL (≈ 1.89 µM) | 3.8 µM | 30.3 µM (≈ 64.2 µg/mL) | 32 μg mL^–1 | 3.8 µM (≈ 8.05 µg/mL) | 4 μg mL^–1 | 7.6 µM (≈ 16.1 µg/mL) | 8 μg mL^–1 | 4 µg/mL (≈ 1.89 µM) | 3.8 µM (≈ 8.05 µg/mL) | + | - | Hemolysis (Sheep blood; Supplemental table S9, 1 hour incubation at 37 °C, lipopeptides at 32 µg/mL): 6%; MIC B. subtilis (B. subtilis (168); [6]): 8 to 16 µg/mL |
| CCCCCCCCCCCCCCNC(=O)CNC(=O)[C@H]1CSCc2cc3cc(c2)CSC[C@@H](NC(=O)[C@@H](CC(C)C)NC(=O)[C@@H](CC(C)C)NC(=O)[C@@H](CO)NC(=O)[C@@H](CCC(N)=O)NC(=O)[C@@H](CC(C)C)NC(=O)[C@@H](CC(C)C)NC(=O)[C@H](NC(=O)[C@@H](C)N)CSC3)C(=O)N2CCC[C@@H]2C(=O)N[C@H](Cc2ccc(O)cc2)C(=O)N[C@H](CO)C(=O)N[C@H]([C@H](C)O)C(=O)N[C@H](Cc2c[nH]cn2)C(=O)N[C@H](CCCNC(=N)N)C(=O)N1 [Peptide P8-D-C14] (H-[dA][dC][dL][dL][dQ][dS][dL][dL][dC][dP][dY][dS][dT][dH][dR][dC]G-NHtetradecyl; linker 2-9-16 via TBMB; N-terminus assumed) |  |  | 12% |  |  |  |  |  | 4 to 64 µg/mL |  |  |  |  |  |  |  | 4 to 64 µg/mL |  |  |  | solubility of the peptide [2]: poor |
| Nisin (ITSISLCTPGCKTGALMGCNMKTATCHCSIHVSK; not fully specified (some residues, bridges); also: lantibiotic nisin-A: lanthionine rings and dehydro residues not placed; UniProt P13068 24-57, looked up) [reference compound] | + | antagonization of antibacterial activity |  | < 0.3 µM | <1 μg mL^–1 | 4 μg mL^–1 | 4 μg mL^–1 | 8 μg mL^–1 |  | < 0.3 µM | 9.5 µM | 32 μg mL^–1 | 0.3 µM | 1 μg mL^–1 | 0.6 µM | 2 μg mL^–1 |  | < 0.3 µM | + | - | MIC B. subtilis (168) (B. subtilis (168); [4]): 1.2 µM; MIC S. epidermidis (1587) (S. epidermidis (1587); [4]): 1.2 µM; MIC E. faecium (VRE2297) (E. faecium (VRE2297); [8]): 2.4 µM; MIC E. faecium (VRE155) (E. faecium (VRE155); [6]): < 1 µg/mL; MIC E. faecium (VRE155) (E. faecium (VRE155); [7]): <1 μg mL^–1; MIC M. luteus (NCTC2665) (M. luteus (NCTC2665); Table 2, broth microdilution in TSB, 16 h, read visually, highest tested 64 µg/ml, 2% DMSO): <1 μg mL^–1; Kd [3]: 133 nM |
